Results from ChEMBL document CHEMBL1157369, “Inhibition of type III secretion in Salmonella enterica serovar Typhimurium by small-molecule inhibitors” (Antimicrob Agents Chemother, 2007).
Activity calls are given as the source filed them. The rule behind the calls is not given here.

Columns and labels:
[1] = test system: Salmonella enterica subsp. enterica serovar Typhimurium; test: Inhibition of T3SS-1 associated virulence phenotype in 1.5 hrs 100 uM pretreated Salmonella enterica serovar Typhimurium 4/74 assessed as reduction of contact dependent hemolysis of sheep erythrocytes relative to wild-type
[2] = test system: Salmonella enterica subsp. enterica serovar Typhimurium; test: Inhibition of T3SS-1-mediated secretion of SopE protein in Salmonella enterica serovar Typhimurium 4/74 at 100 uM after 4 hrs by SDS-PAGE
[3] = test system: Salmonella typhimurium; test: Suppression of Salmonella enterica serovar Typhimurium 4/74 infection-induced inflammatory response in Friesian bull intestinal ligated loop model assessed as polymorphonuclear leucocyte influx at 100 uM coadministered with bacterial challenge; type: functional, organism-based; conditions: Salmonella enterica subsp. enterica serovar Typhimurium
[4] = test system: Salmonella enterica subsp. enterica serovar Typhimurium; test: Inhibition of T3SS-1-mediated secretion of SopE protein in Salmonella enterica serovar Typhimurium 4/74 after 4 hrs by SDS-PAGE
[5] = test system: Salmonella typhimurium; test: Reduction of Salmonella enterica serovar Typhimurium 4/74 invasion of human HeLa cells preincubated at 100 uM for 1 hr relative to control; type: functional, Salmonella enterica subsp. enterica serovar Typhimurium; design: scale not given: the % may be the effect or the level left
[6] = test system: Salmonella enterica subsp. enterica serovar Typhimurium; test: Inhibition of T3SS-1-mediated secretion of SipC protein in Salmonella enterica serovar Typhimurium 4/74 after 4 hrs by SDS-PAGE
[7] = test system: HeLa; test: Toxicity against human HeLa cells at 0.1 to 10 uM after 3 hrs; type: cell-based
[8] = test system: Salmonella typhimurium; test: Suppression of 1.5 hrs 100 uM pretreated Salmonella enterica serovar Typhimurium 4/74 infection-induced inflammatory response in Friesian bull intestinal ligated loop model assessed as polymorphonuclear leucocyte influx; type: functional, organism-based; conditions: Salmonella enterica subsp. enterica serovar Typhimurium
[9] = test system: Salmonella enterica subsp. enterica serovar Typhimurium; test: Inhibition of T3SS-1-mediated secretion of SipC protein in Salmonella enterica serovar Typhimurium 4/74 at 100 uM after 4 hrs by SDS-PAGE
[10] = test system: Salmonella enterica subsp. enterica serovar Typhimurium; test: Inhibition of T3SS-1-mediated secretion of SipA protein in Salmonella enterica serovar Typhimurium 4/74 at 100 uM after 4 hrs by SDS-PAGE
[11] = test system: Salmonella enterica subsp. enterica serovar Typhimurium; test: Inhibition of T3SS-1-mediated secretion of SipA protein in Salmonella enterica serovar Typhimurium 4/74 after 4 hrs by SDS-PAGE
[12] = test system: Salmonella typhimurium; test: Suppression of 1.5 hrs 100 uM pretreated Salmonella enterica serovar Typhimurium 4/74 infection-induced intestinal secretory response in Friesian bull intestinal ligated loop model; type: functional, organism-based; conditions: Salmonella enterica subsp. enterica serovar Typhimurium
[13] = test system: Salmonella typhimurium; test: Effect on viability of Salmonella enterica serovar Typhimurium 4/74 at 100 uM after 4 hrs; type: functional, organism-based; conditions: Salmonella enterica subsp. enterica serovar Typhimurium
[14] = test system: Salmonella typhimurium; test: Suppression of Salmonella enterica serovar Typhimurium 4/74 infection-induced intestinal secretory response in Friesian bull intestinal ligated loop model at 100 uM coadministered with bacterial challenge; type: functional, organism-based; conditions: Salmonella enterica subsp. enterica serovar Typhimurium

For `O=C(N/N=C/c1cc(Cl)cc(Cl)c1O)c1ccccc1`, the Activity [1] was “Active”, the Activity [2] was “Active” and the Activity [3] was “inactive”. The Activity [4] was “Dose-dependent effect”, the Activity [5] was 60% and the “%max” value [6] was “Dose-dependent effect”. The Activity [7] was “Non-toxic”, the Activity [8] was “Active” and the Activity [9] was “Active”. For the same molecule, the Activity [10] was “Active”, the Activity [11] was “Dose-dependent effect” and the Activity [12] was “Active”. The Activity [13] was “inactive” and the Activity [14] was “inactive”.
In the case of `O=C(N/N=C/c1cc(Br)cc(Br)c1O)c1ccc([N+](=O)[O-])cc1`, the Activity [1] is reported as “Active”, the Activity [2] is reported as “Active” and the Activity [3] is reported as “inactive”. The Activity [4] was “Dose-dependent effect”, the Activity [5] was 47% and the “%max” value [6] was “Dose-dependent effect”. The Activity [7] was “Non-toxic”, the Activity [8] was “Active” and the Activity [9] was “Active”. For the same molecule, the Activity [10] was “Active”, the Activity [11] was “Dose-dependent effect” and the Activity [12] was “Active”. The Activity [13] was “inactive” and the Activity [14] was “inactive”.
